Assay [1] addresses T1, endothelin B (ETB) receptors (Bos taurus, UniProt P28088).
T1 construct: A membrane fraction prepared from a bovine brain; from tissue; host or cells: bovine brain membrane fraction
T1 sequence (P28088 27-441): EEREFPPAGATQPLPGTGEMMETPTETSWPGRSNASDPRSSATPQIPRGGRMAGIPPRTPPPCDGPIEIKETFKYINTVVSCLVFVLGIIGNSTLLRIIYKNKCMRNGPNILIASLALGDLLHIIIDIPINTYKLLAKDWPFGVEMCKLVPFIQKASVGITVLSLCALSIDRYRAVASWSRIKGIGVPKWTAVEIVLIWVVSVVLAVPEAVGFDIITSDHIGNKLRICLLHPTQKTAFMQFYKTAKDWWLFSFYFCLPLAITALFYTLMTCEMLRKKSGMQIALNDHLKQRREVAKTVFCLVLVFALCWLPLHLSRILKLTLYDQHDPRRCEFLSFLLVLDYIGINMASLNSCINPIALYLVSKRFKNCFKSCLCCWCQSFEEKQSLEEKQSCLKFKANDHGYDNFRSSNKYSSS
The assay can be described thus: Determination of ETB receptor binding activity ([125I]ET-1, bovine brain membrane fraction). To be noted: [125I]ET-1 binding, 25° C., 1 hour. The protocol:
(2) Determination of ETB receptor binding activity
A membrane fraction prepared from a bovine brain was diluted to 150 μg/ml with an assaying buffer and dispensed to assaying tubes at 100 μl per tube. To this membrane fraction suspension were added 2 μl of a solution of endothelin-1 labeled with 100 pM of radioactive iodine ([^125 I]ET-1, produced by Amersham Medical Ltd.) and 3 μl of a solution of the subject compound at various concentrations, followed by incubation at 25° C. for 1 hour. The suspension was then diluted with an ice-cooled assaying buffer and filtered through a glass filter GF/F (produced by Whatman K.K.). The membrane fraction containing endothelin B (ETB) receptors and receptor-bound [^125 I)ET-1 were recovered on the filter. The radioactivity retained on the filter was measured to obtain the amount of (^125 I]ET-1 bound to the ETB receptors. The amount of (^125 I]ET-1 bound in the presence of ET-1 in great excess as the test compound was taken as the amount of nonspecific binding. The amount of specific binding (SPB) of [^125 I]ET-1 was obtained by subtracting the amount of nonspecific binding from the total amount of binding determined. The percent SPB value at test compound concentration C (molar concentration by volume) was defined as the percent ratio of the amount of specific binding relative to the amount of specific binding obtained at a test compound concentration of 0. The thus-obtained value was substituted for the following "pseudo-Hill's equation" to calculate the test compound concentration (IC50 value) required to have a value of 50% for the amount of specific binding of [^125 I]ET-1.
(§1) log[%SPB/(100 - %SPB)]=n[logC - log(IC50)]
(§2) n: Pseudo-Hill's coefficient

The target in assay [2] is T2, endothelin A (ETA) receptors (Sus scrofa, UniProt Q29010).
T2 construct: A membrane fraction prepared from swine ventricular muscle; from tissue; host or cells: swine ventricular muscle membrane fraction
T2 sequence (Q29010 21-427): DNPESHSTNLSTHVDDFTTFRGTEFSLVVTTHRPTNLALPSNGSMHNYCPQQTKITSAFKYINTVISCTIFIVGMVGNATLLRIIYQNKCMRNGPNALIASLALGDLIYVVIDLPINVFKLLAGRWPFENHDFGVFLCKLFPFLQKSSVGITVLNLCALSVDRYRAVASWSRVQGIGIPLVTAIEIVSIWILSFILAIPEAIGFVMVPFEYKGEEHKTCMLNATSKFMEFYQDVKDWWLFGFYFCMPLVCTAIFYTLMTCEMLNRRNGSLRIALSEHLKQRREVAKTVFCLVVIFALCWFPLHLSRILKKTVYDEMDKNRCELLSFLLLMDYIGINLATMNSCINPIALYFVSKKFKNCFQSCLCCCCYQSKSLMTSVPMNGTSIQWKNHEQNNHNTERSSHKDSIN
The assay can be described thus: Determination of ETA receptor binding activity ([125I]ET-1, swine ventricular muscle membrane fraction). To be noted: [125I]ET-1 binding, 25° C., 1 hour. As for the experimental part: Determination of endothelin receptor binding activity (1) Determination of ETA receptor binding activity
A membrane fraction prepared from swine ventricular muscle was diluted to 12 μg/ml with an assaying buffer and dispensed to assaying tubes at 100 μl per tube. To this membrane fraction suspension were added 2 μl of a solution of endothelin-l labeled with 100 pmole of radioactive iodine ([^125 I]ET-1, produced by Amersham Medical Ltd.) and 3 μl of a solution of the subject compound at various concentrations, followed by incubation at 25° C. for 1 hour. The suspension was then diluted with an ice-cooled assaying buffer and filtered through a glass filter GF/F (produced by Whatman K.K.). The membrane fraction containing endothelin A (ETA) receptors and receptor-bound [^125 I)ET-1 were recovered on the filter. The radioactivity retained on the filter was measured to obtain the amount of [^125 I]ET-1 bound to the ETA receptors. The amount of [^125 I,]ET-1 bound in the presence of ET-1 in great excess as the test compound was taken as the amount of nonspecific binding. The amount of specific binding (SPB) of [^125 I]ET-1 was obtained by subtracting the amount of nonspecific binding from the total amount of binding determined. The percent SPB value at test compound concentration C (molar concentration by volume) was defined as the percent ratio of the amount of specific binding relative to the amount of specific binding obtained at a test compound concentration of 0. The thus-obtained value was substituted for the following "pseudo-Hill's equation" to calculate the test compound concentration (IC50 value) required to have a value of 50% for the amount of specific binding of [125I]ET-1.
as §1, §2

Assay [3] concerns porcine coronary vein ring preparations constricted with sarafotoxin S6c. As to the kind of experiment: Determination of porcine coronary vein relaxation activity. To be noted: peptide at 0.01 μM; vein constricted with S6c 1 nM for 45 min; relative to constriction of S6c (100%). The protocol:
Determination of porcine coronary vein relaxation activity
Ring preparations of porcine coronary vein (3 mm in a diameter) were placed in an organ bath filled with Krebs solution gassed with 95% O2 /5%CO2 at 37° C. and allowed to stand for 1.5 h at a resting load of 0.5 g tension for vein. The preparations were constricted with 60 mM KCl for 15 min and then washed and allowed to stand for 1.5 h at the resting load. The vein preparations constricted with sarafotoxin S6c (S6c) at 1 nM for 45 min were used to determine the effect of the peptide of Example 4 at 0.01 μM. Result is shown in the following Table as the relaxation rate relative to the constriction of S6c (100%).

Where a SMILES comes first, the peptide text is derived from it. [ ]: non-standard residue; d: D form. The star is where a group is joined. Piperazinyl(4-(2-MeOPh)) = COc1ccccc1N1CCN(*)CC1; Piperazinyl(4-Ph) = c1ccc(N2CCN(*)CC2)cc1; dGly(2-thienyl) = N[C@@H](C(=O)O)c1cccs1; d(tBuAla) = CC(C)(C)C[C@@H](N)C(=O)O

With `COc1ccccc1N1CCN(C(=O)C[C@@H]2NC(=O)[C@@H](CC(=O)O)NC(=O)[C@@H](Cc3c[nH]c4ccccc34)NC(=O)[C@H](CC(C)C)NC(=O)[C@@H](CC(C)(C)C)NC(=O)[C@H](CC(=O)O)NC2=O)CC1` [Example 1, cyclo[--D--Asp--Asp(B7)--Asp--D--γMeLeu--L--Leu--D--Trp--]] (cyclo(D(Piperazinyl(4-(2-MeOPh)))D[d(tBuAla)]L[dW][dD])), the IC50 (in general, the midpoint of a concentration-inhibition curve) in assay [1] is 11 nM; in assay [2], 0.18 nM. The matching figures for `CC(C)C[C@@H]1NC(=O)[C@@H](CC(C)(C)C)NC(=O)[C@H](CC(=O)O)NC(=O)[C@H](CC(=O)N2CCN(c3ccccc3)CC2)NC(=O)[C@@H](CC(=O)O)NC(=O)[C@@H](Cc2c[nH]c3ccccc23)NC1=O` [Example 2, cyclo(--D--Asp--L--Asp(B1)--L--Asp--D--γMeLeu--L--Leu--D--Trp--)] (cyclo(D(Piperazinyl(4-Ph))D[d(tBuAla)]L[dW][dD])): 28 nM and 0.18 nM.

Consider `COc1ccccc1N1CCN(C(=O)C[C@@H]2NC(=O)[C@@H](CC(=O)O)NC(=O)[C@@H](Cc3cn(C(C)=O)c4ccccc34)NC(=O)[C@H](CC(C)C)NC(=O)[C@@H](CC(C)(C)C)NC(=O)[C@H](CC(=O)O)NC2=O)CC1` [Example 3, cyclo(--D--Asp--L--Asp(B7)--L--Asp--D--γMeLeu--L--Leu--D--Trp(Ac)--)] (cyclo(D(Piperazinyl(4-(2-MeOPh)))D[d(tBuAla)]L[dW](Ac)[dD])), for which the IC50 in assay [1] came out at 14 nM; in assay [2], 0.49 nM. The like results for `CC(C)C[C@@H]1NC(=O)[C@@H](c2cccs2)NC(=O)[C@H](CC(=O)O)NC(=O)[C@H](CC(=O)N2CCN(c3ccccc3)CC2)NC(=O)[C@@H](CC(=O)O)NC(=O)[C@@H](Cc2c[nH]c3ccccc23)NC1=O` [Reference Example 1, cyclo(--D--Asp--L--Asp(B1)--L--Asp--D--Thg(2)--L--Leu--D--Trp--), reference compound] (cyclo(D(Piperazinyl(4-Ph))D[dGly(2-thienyl)]L[dW][dD])) were, in that order, 120 nM and 0.08 nM. For “cyclo[--D--Asp--Asp(B7)--Asp--D--γMeLeu--Leu--D--Trp--].2Na [Example 4]”, the “relaxation rate (%)” value in assay [3] worked out at 66%.

These data come from US5948754A, “Cyclic hexapeptides, their production and use” (Takeda Chemical Industries, Ltd., priority 1993, dated 1999).
